Reference: patent US11559538B2, “Substituted 1,2-oxaborolan-2-ols as PDE4 inhibitors” (Pfizer Inc., priority 2018, dated 2023)

Legend:
IFNγ = experiment: Cytokine assay: IFNγ release from PHA-L stimulated human PBMCs; assay type: cell-based; details: Homo sapiens, PBMC
Method in brief: (§1)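 IC50 values came from four-parameter logistic fits of supernatant cytokine, which was quantified by HTRF. Mitogen stimulation used PHA-L at a final 3.5 μg/mL on about 250,000 thawed human PBMCs per well, in serum-containing RPMI medium with 0.25% DMSO, for 48 h.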

[1] = In-vitro skin permeation study (Franz cell assay); assay type: in vitro ADME; details: N=15 (3 skin donors, 5 replicates per donor)
Description: Topical formulations prepared containing Example 4 that were tested for skin permeability and maximum flux of Example 4 are listed in Table 13.
A higher driving force can be achieved via incorporation into the formulations of additional penetration enhancers such as oleyl alcohol.

IL-4 = experiment: Cytokine assay: IL-4 release from PHA-L stimulated human PBMCs; assay type: cell-based; details: Homo sapiens, PBMC, read-out: IL4 IC50
Method in brief: as §1

[2] = biological target: PDE4B (aa 152-484, Uniprot ID Q07343) (Homo sapiens (Human), UniProt Q07343); experiment: PDE4 SPA assay (scintillation proximity assay); assay type: biochemical; details: read-out: PDE4B2 IC50
Sequence of PDE4B (aa 152-484, Uniprot ID Q07343) (Q07343 324-656): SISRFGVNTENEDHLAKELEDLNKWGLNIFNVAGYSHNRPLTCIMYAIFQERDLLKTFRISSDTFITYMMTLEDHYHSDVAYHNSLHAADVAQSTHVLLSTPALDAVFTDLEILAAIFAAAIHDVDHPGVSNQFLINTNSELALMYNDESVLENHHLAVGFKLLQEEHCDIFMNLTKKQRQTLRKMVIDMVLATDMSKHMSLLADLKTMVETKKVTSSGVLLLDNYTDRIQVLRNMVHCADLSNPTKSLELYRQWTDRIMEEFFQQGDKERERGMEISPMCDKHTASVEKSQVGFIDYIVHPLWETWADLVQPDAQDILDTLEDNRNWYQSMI
Method in brief: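 PDE4B (aa 152-484, ~81.6 pM) preincubated ~10 min with compound, then 1 μM ³H/unlabeled cAMP added in Tris pH 7.5, 1.3 mM MgCl2, 0.004% Brij 35, ~2% DMSO; 30 min at RT. Product captured on SPA beads and counted; IC50 by four-parameter logistic fit.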

IL-13 = experiment: Cytokine assay: IL-13 release from PHA-L stimulated human PBMCs; assay type: cell-based; details: Homo sapiens, PBMC, read-out: IL13 IC50
Method in brief: as §1

[3] = 0.01% Example 4 ointment formulation from Table 13
[4] = 0.1% Example 4 ointment formulation from Table 13
[5] = 1% Example 4 ointment formulation from Table 13

Row | SMILES | IC50 (IFNγ) | Mean, Cumulative Amount in 24 hours [1, 3] | Mean, Max. Flux [1, 3] | Mean, Cumulative Amount in 24 hours [1, 4] | Mean, Max. Flux [1, 4] | Mean, Cumulative Amount in 24 hours [1, 5] | Mean, Max. Flux [1, 5] | IC50 (IL-4) | IC50 [2] | IC50 (IL-13)
1 | CCCOc1cc(-c2cncc([C@@H]3COB(O)C3)c2)ccc1OC [Example 4, (R) 4-(5-(4-methoxy-3-propoxyphenyl)pyridin-3-yl)-1,2-oxaborolan-2-ol] | 1.06 nM | 233.0 ng | 20.14 ng/cm^2/hr | 1089.9 ng | 73.95 ng/cm^2/hr | 3357.7 ng | 252.28 ng/cm^2/hr | 4.11 nM | 0.5 nM | 135 nM
2 | CCOc1cc(-c2nc(OC)cc(C3COB(O)C3)n2)ccc1OC (centres unmarked) [Example 185, 4-(2-(3-ethoxy-4-methoxyphenyl)-6-methoxypyrimidin-4-yl)-1,2-oxaborolan-2-ol] | 1.3 nM |  |  |  |  |  |  | 5.75 nM | 3.38 nM | 2980 nM
3 | CCOc1ccc(-c2cncc(C3COB(O)C3)c2)cc1OC (centres unmarked) [Example 187, 4-(5-(4-ethoxy-3-methoxyphenyl)pyridin-3-yl)-1,2-oxaborolan-2-ol] | 8.84 nM |  |  |  |  |  |  | 41.1 nM | 4.28 nM | 1420 nM
4 | CCOc1c(OC)ccc(-c2cccc(C3COB(O)C3)c2)c1C#N (centres unmarked) [Example 191, 3-ethoxy-3′-(2-hydroxy-1,2-oxaborolan-4-yl)-4-methoxy-[1,1′-biphenyl]-2-carbonitrile] | 4.42 nM |  |  |  |  |  |  | 176 nM | 3.84 nM | 1500 nM
5 | CCCOc1cc(-c2cc(CO)nc(C3COB(O)C3)n2)ccc1OC (centres unmarked) [Example 198, 4-(4-(hydroxymethyl)-6-(4-methoxy-3-propoxyphenyl)pyrimidin-2-yl)-1,2-oxaborolan-2-ol] | 4.85 nM |  |  |  |  |  |  | 14.2 nM | 14.3 nM | 1580 nM
6 | CCOc1c(OC)ccc(-c2cccc(C3COB(O)C3)n2)c1F (centres unmarked) [Example 199, 4-(6-(3-ethoxy-2-fluoro-4-methoxyphenyl)pyridin-2-yl)-1,2-oxaborolan-2-ol] | 4.55 nM |  |  |  |  |  |  | 90.4 nM | 10.4 nM | 1590 nM
7 | CCCOc1cc(-n2ccc(C3COB(O)C3)n2)ccc1OC (centres unmarked) [Example 200, 4-(1-(4-methoxy-3-propoxyphenyl)-1H-pyrazol-3-yl)-1,2-oxaborolan-2-ol] | 14.1 nM |  |  |  |  |  |  | 128 nM | 12.9 nM | 1600 nM
8 | COc1cc(-c2cncc(C3COB(O)C3)c2)ccc1SC (centres unmarked) [Example 201, 4-(5-(3-methoxy-4-(methylthio)phenyl)pyridin-3-yl)-1,2-oxaborolan-2-ol] | 9.51 nM |  |  |  |  |  |  | 105 nM | 2.13 nM | 1660 nM
9 | CCCOc1cc(-c2cc(C3COB(O)C3)cc(CO)n2)ccc1OC (centres unmarked) [Example 202, 4-(2-(hydroxymethyl)-6-(4-methoxy-3-propoxyphenyl)pyridin-4-yl)-1,2-oxaborolan-2-ol] | 8.51 nM |  |  |  |  |  |  | 5.2 nM | 4.29 nM | 1670 nM
10 | CCOc1cc(-c2cccc(C3COB(O)C3)n2)ccc1SC (centres unmarked) [Example 203, 4-(6-(3-ethoxy-4-(methylthio)phenyl)pyridin-2-yl)-1,2-oxaborolan-2-ol] | 114 nM |  |  |  |  |  |  | 176 nM | 15 nM | 2180 nM
11 | COc1cc(-c2cccc(C3COB(O)C3)c2)ccc1SC (centres unmarked) [Example 206, 4-(3′-methoxy-4′-(methylthio)-[1,1′-biphenyl]-3-yl)-1,2-oxaborolan-2-ol] | 27.8 nM |  |  |  |  |  |  | 113 nM | 2.65 nM | 1790 nM
12 | COc1ccc(-c2cc(C)cc(C3COB(O)C3)c2)cc1OC (centres unmarked) [Example 207, 4-(3′,4′-dimethoxy-5-methyl-[1,1′-biphenyl]-3-yl)-1,2-oxaborolan-2-ol] | 53.5 nM |  |  |  |  |  |  | 390 nM | 10.3 nM | 1800 nM
13 | COc1ccc(-c2cc(C3COB(O)C3)ccn2)cc1OC1CCCC1 (centres unmarked) [Example 210, 4-(2-(3-(cyclopentyloxy)-4-methoxyphenyl)pyridin-4-yl)-1,2-oxaborolan-2-ol] | 2.4 nM |  |  |  |  |  |  | 17.6 nM | 1.92 nM | 2390 nM
14 | CCCOc1cc(-c2nccc(C3COB(O)C3)n2)ccc1OC (centres unmarked) [Example 212, 4-(2-(4-methoxy-3-propoxyphenyl)pyrimidin-4-yl)-1,2-oxaborolan-2-ol] | 3.29 nM |  |  |  |  |  |  | 103 nM | 2.27 nM | 1900 nM
15 | CCCOc1c(OC)ccc(-c2cccc(C3COB(O)C3)n2)c1F (centres unmarked) [Example 213, 4-(6-(2-fluoro-4-methoxy-3-propoxyphenyl)pyridin-2-yl)-1,2-oxaborolan-2-ol] | 3.36 nM |  |  |  |  |  |  | 80.9 nM | 6.32 nM | 1980 nM

Second part, the compound after the results:

Row | IC50 (IFNγ) | Mean, Cumulative Amount in 24 hours [1, 3] | Mean, Max. Flux [1, 3] | Mean, Cumulative Amount in 24 hours [1, 4] | Mean, Max. Flux [1, 4] | Mean, Cumulative Amount in 24 hours [1, 5] | Mean, Max. Flux [1, 5] | IC50 (IL-4) | IC50 [2] | IC50 (IL-13) | SMILES
16 | 2.18 nM |  |  |  |  |  |  | 62.7 nM | 2.58 nM | 2050 nM | CCCOc1c(OC)ccc(-c2cncc(C3COB(O)C3)n2)c1F (centres unmarked) [Example 215, 4-(6-(2-fluoro-4-methoxy-3-propoxyphenyl)pyrazin-2-yl)-1,2-oxaborolan-2-ol]
17 | 10.3 nM |  |  |  |  |  |  | 20.5 nM | 5.5 nM | 2070 nM | CCOc1ccc(-c2cncc(C3COB(O)C3)c2)c(F)c1OC (centres unmarked) [Example 217, 4-(5-(4-ethoxy-2-fluoro-3-methoxyphenyl)pyridin-3-yl)-1,2-oxaborolan-2-ol]
18 | 2.3 nM |  |  |  |  |  |  | 3.24 nM | 1.45 nM | 2840 nM | CCCOc1cc(-c2cc(C3COB(O)C3)cnc2C)cnc1OC (centres unmarked) [Example 218, 4-(6′-methoxy-2-methyl-5′-propoxy-[3,3′-bipyridin]-5-yl)-1,2-oxaborolan-2-ol]
19 | 2.37 nM |  |  |  |  |  |  | 540 nM | 3.29 nM | 2130 nM | CCOc1cc(-c2cc(C(F)(F)F)cc(C3COB(O)C3)n2)ccc1OC (centres unmarked) [Example 220, 4-(6-(3-ethoxy-4-methoxyphenyl)-4-(trifluoromethyl)pyridin-2-yl)-1,2-oxaborolan-2-ol]
20 | 1.17 nM |  |  |  |  |  |  | 1.44 nM | 1.14 nM | 2370 nM | CCOc1cc(C2COB(O)C2)nc(-c2ccc(OC)c(OCC)c2)n1 (centres unmarked) [Example 222, 4-(6-ethoxy-2-(3-ethoxy-4-methoxyphenyl)pyrimidin-4-yl)-1,2-oxaborolan-2-ol]
21 | 8.12 nM |  |  |  |  |  |  | 8.94 nM | 2.17 nM | 2490 nM | CCCOc1cc(-c2nc(OC)cc(C3COB(O)C3)n2)ccc1OC (centres unmarked) [Example 224, 4-(6-methoxy-2-(4-methoxy-3-propoxphenyl)pyrimidin-4-yl)-1,2-oxaborolan-2-ol]
22 | 17.8 nM |  |  |  |  |  |  | 24.7 nM | 8.72 nM | 2520 nM | COc1ccc(-c2cccc(C3COB(O)C3)n2)c(C#N)c1OC1CCCC1 (centres unmarked) [Example 226, 2-(cyclopentyloxy)-6-(6-(2-hydroxy-1,2-oxaborolan-4-yl)pyridin-2-yl)-3-methoxybenzonitrile]
23 | 9.16 nM |  |  |  |  |  |  | 285 nM | 7.94 nM | 2540 nM | COc1ccc(-c2cc(C3=CB(O)OC3)ccn2)cc1OC [Example 227, 4-(2-(3,4-dimethoxphenyl)pyridin-4-yl)-1,2-oxaborol-2(5H)-ol]
24 | 2.9 nM |  |  |  |  |  |  | 195 nM | 2.64 nM | 2730 nM | CCOc1cc(-c2cncc(C3=CB(O)OC3)c2)ccc1OC [Example 229, 4-(5-(3-ethoxy-4-methoxyphenyl)pyridin-3-yl)-1,2-oxaborol-2(5H)-ol]
25 | 17.9 nM |  |  |  |  |  |  | 197 nM | 4.65 nM | 583 nM | COc1ccc(-c2cccc(C3COB(O)C3)c2)cc1OC (centres unmarked) [Example 232, 4-(3′,4′-dimethoxy-[1,1′-biphenyl]-3-yl)-1,2-oxaborolan-2-ol]
26 | 2.94 nM |  |  |  |  |  |  | 104 nM | 8.74 nM | 508 nM | CCOc1cc(-c2cccc(C3COB(O)C3)n2)ccc1OC (centres unmarked) [Example 233, 4-(6-(3-ethoxy-4-methoxyphenyl)pyridin-2-yl)-1,2-oxaborolan-2-ol]
